Measured values published in PubChem BioAssay (NCI).
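Step 1: Grow cells in 96-well plates. Step 2: Expose to compound for 48 hours at 5 concentrations. Step 3: Interpolate endpoints linearly; if unreached, use highest concentration. The concentration for 50% growth inhibition is given as GI50. TGI: concentration producing complete growth inhibition.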 Where a SMILES comes first, the peptide text is derived from it. The star is where a group is joined. Cbz = O=C(OCc1ccccc1)*; CH2Cl = ClC*

system: PC-3 prostate; experiment: NCI anticancer screen, dose series, 48 h

Row | Compound | TGI [µM] | GI50 [µM]
1 | O=C(O)Cc1cc(Cl)ccc1O | > 100 | 
2 | COc1ccc(C(=O)/C=C/c2cc(-c3cc(OC)c(OC)c(OC)c3)n[nH]2)cc1OC | 2.8 | 1.36
3 | C=C(C)[C@@H]1CC[C@]2(C)[C@H](CC=C3[C@@H]4CC(C)(C)CC[C@]4(C(N)=O)CC[C@]32C)[C@@]1(C)CCC#N | > 100 | 2.37
4 | COc1c(OC[C@H](O)CN2CCOCC2)ccc2c3n(c(=NC(=O)c4cccnc4C)nc12)CCN3 | > 50 | 0.326
5 | O=C(c1ccccc1Br)C(F)(F)F | > 100 | 
6 | COc1ccc(-c2nc3ccc(-c4nc5ccc(N6CCN(c7ccccc7)CC6)cc5[nH]4)cc3[nH]2)cc1OC | 3.26 | 1.59
7 | O=C(N[C@@H](c1ccc(Cl)c(Cl)c1)C1CNC1)c1ccc2cnccc2c1 | 17.2 | 0.486
8 | CO/N=C(\COc1ccc2c(c1)oc(=O)c1cc(OC)ccc12)c1ccc(OC)cc1 | > 100 | > 100
9 | O=C1OCC2=C1C(c1cccc(Br)c1)c1cc3c(cc1N2CCO)CCC3 (stereo not drawn) | 7.1 | 0.0864
10 | Clc1ccc2[nH]cc(-c3nnnn3-c3ccccc3)c2c1 | > 59.5 | 18.6
11 | CC(=O)OC12C=CC(=O)N1c1ccccc1C(=O)O2 (stereo not drawn) | > 100 | > 100
12 | CCCC(=O)Nc1cc2c3c(c1)CCCN3CCC2 | > 10 | 
13 | COc1cc(-c2cc(-c3cc4c([nH]c5ccccc54)c(-c4cc(OC)c(OC)c(OC)c4)n3)cc(-c3ccccc3)n2)cc(OC)c1OC | 32.3 | 3.59
14 | O=C1C=CC(=O)c2cc3cc(CBr)ccc3cc21 | 8.9 | 3.85
15 | CC(C)Oc1ccc2cc(-c3nn(CC4CCNCC4)c4ncnc(N)c34)ccc2c1 | 25.8 | 12
16 | COc1cc(F)ccc1-c1ncnc(Nc2cccc(CS(C)(=N)=O)c2)n1 (stereo not drawn) | 7.7 | 1.28
17 | CS(=O)(=O)CCNCc1nc(-c2ccc3ncnc(Nc4ccc(OCc5cccc(C(F)(F)F)c5)cc4)c3c2)cs1 | > 25 | > 23.6
18 | CC(C)CC(NC(=O)OCc1ccccc1)C(=O)NC(Cc1ccccc1)C(=O)CCl (stereo not drawn) (Cbz-Leu-Phe-CH2Cl; configuration not given here) | 9.41 | 
19 | [Cl][Hg][c]1cc[c]([Hg][Cl])o1 | 28.5 | 6.83
20 | CCOC(=O)C(Cc1ccc(CCCC(=O)NCCC(=O)Nc2ccc3nc(C)sc3c2)cc1)C(=O)OCC | > 70.7 | 24.3
21 | NCCNc1c2c(c(NCCN)c3[nH]ccc13)C(=O)c1ccccc1C2=O | 2.45 | 0.631
22 | Cc1c2c(C#N)nccc2c(C)c2c1c1ccccc1n2Cc1ccccc1 | > 100 | 
23 | CCOC(=O)Nc1ccc(-c2nc(-c3cccc(OCCN4CCOCC4)c3)c(-c3ccnc(Br)c3)[nH]2)cc1 | > 100 | 2.87
24 | COc1cc(Cn2c(-c3ccccc3)c(Cl)c3c2-c2oncc2CC3)cc(OC)c1 | > 100 | 7.12
25 | COc1ccc(-c2nn(-c3ccc(NC(=O)c4ccc(Cl)c(Cl)c4)cc3)cc2-c2ccncc2)cc1Cl | > 50 | 2.42
26 | CN(C)C(n1cc2c(c1)-c1ccc(Cl)cc1C(c1ccccc1F)=NC2)n1cc2c(c1)-c1ccc(Cl)cc1C(c1ccccc1F)=NC2 | > 100 | 
27 | COc1cccc2c1C(=O)c1c(O)c3c(c(O)c1C2=O)C[C@](O)(C(=O)CO)C[C@H]3O[C@@H]1C[C@@H](NC(=O)CCCCCN(C)C2(c3ccc(F)cc3)CC3CCC2C3)[C@H](O)[C@@H](C)O1 (stereo partly drawn) | 2.06 | 0.994

system: HOP-62 NSCLC; experiment: NCI anticancer screen, dose series, 48 h

Row | Compound | TGI [µM] | GI50 [µM]
28 | O=C(O)Cc1cc(Cl)ccc1O | > 100 | 
29 | COc1ccc(C(=O)/C=C/c2cc(-c3cc(OC)c(OC)c(OC)c3)n[nH]2)cc1OC | 2.77 | 1.44
30 | C=C(C)[C@@H]1CC[C@]2(C)[C@H](CC=C3[C@@H]4CC(C)(C)CC[C@]4(C(N)=O)CC[C@]32C)[C@@]1(C)CCC#N | > 100 | 7.44
31 | COc1c(OC[C@H](O)CN2CCOCC2)ccc2c3n(c(=NC(=O)c4cccnc4C)nc12)CCN3 | > 50 | 1.41
32 | O=C(c1ccccc1Br)C(F)(F)F | > 100 | 
33 | COc1ccc(-c2nc3ccc(-c4nc5ccc(N6CCN(c7ccccc7)CC6)cc5[nH]4)cc3[nH]2)cc1OC | 6.58 | 2.04
